Experimental findings from article PMC12104396, “Comparative in vitro assessment of CYP2C19 inhibition by ilaprazole and conventional proton pump inhibitors using a high throughput fluorometric assay” (Scientific Reports, 2025) are described below.

Where “and” joins values, the source holds several entries; their conditions need not be identical. Equal values may be shown once.

Data set [1] addresses T1, CYP2C19 (Homo sapiens, UniProt P33261).
T1 construct: purchased Thermo Scientific P2864
Put plainly: High-throughput fluorometric CYP2C19 inhibition assay (Vivid CYP2C19 Blue Screening Kit, EOMCC substrate, endpoint mode). As to conditions: for Ki: approximated as IC50,u/2 (Cheng-Prusoff, S much lower than Km), read-out: Ki,u (unbound inhibition constant); for IC50: recombinant human CYP2C19 BACULOSOMES, eight concentrations, duplicate, nonlinear regression. In kind it is biochemical. On the procedure: Vivid™ CYP2C19 Blue Screening Kit (Thermo Scientific; Cat. No. P2864).
Vivid® CYP450 2X Reaction Buffer 100 Mm, CYP2C19 BACULOSOMES® Plus Reagent 0.5 nmol (Recombinant human cytochrome P450), 0.5 mL Vivid® Regeneration System (Glucose-6-phosphate and 30U/mL Glucose-6-phosphate dehydrogenase in 100 mM Potassium phosphate), 0.5 mL Vivid® NADP + , Vivid® EOMCC Substrate 0.1 mg, Vivid® Blue Fluorescent Standard 0.1 µmol.
Test compounds: Dissolved in DMSO; diluted to 2.5X in 1X buffer.
Positive control inhibitor (Ticlopidine): Stock in DMSO; 2.5X dilution in 1X buffer.
Master Pre-Mix: P450 BACULOSOMES® (50 µL) + Vivid® Regeneration System (100 µL) in 1X buffer.
Substrate/NADP + Mixture: Reconstituted substrate (0.1 mg in 205 µL acetonitrile); added 50 µL substrate + 30 µL NADP + (100X).
A high-throughput fluorometric assay was conducted using a black 96-well microplate. Fluorescence measurements were recorded on a BioTek Synergy H1 multimode microplate reader (Agilent, US) with the appropriate excitation/emission wavelength. The assay followed the protocol provided by Life Technologies, USA. Test compounds were evaluated based on their ability to inhibit fluorescent signal production in reactions involving recombinant CYP isozymes and specific substrates. For IC50 determination, two-fold serial dilutions of the test samples were prepared, and the plates were incubated at 37 °C for 20 min. The enzymatic reaction was initiated by adding a mixture of NADP + and the appropriate substrate, followed by a 10-min incubation at 37 °C. The reaction was then stopped by adding 0.5 M Tris buffer (end-point assay). Fluorescence data was collected at eight different concentrations for both inhibitors and test compounds, with all measurements performed in duplicate.
Fluorescence data were collected after the incubation period, to calculate the percentage inhibition using the following formula: [drawing 1]
X = Fluorescence intensity of test compound (PPIs), A = Fluorescence intensity of solvent control (Fluorescence standard), B = Fluorescence intensity of the positive inhibitor (Ticlopidine).
IC50 values for CYP2C19 (the concentration required to inhibit 50% of CYP2C19 activity) inhibition were calculated using nonlinear regression analysis in GraphPad Prism 9 software.
IC₅₀,u (unbound IC₅₀) was calculated using the formula: [drawing 2] fu, inc = Fraction unbound in the incubation system (0.02, as per regulatory assumptions for highly protein-bound drugs).
The unbound inhibition constant (Ki,u) was determined using the Cheng-Prusoff equation: [drawing 3]
S = Substrate concentration used in the assay, IC₅₀,u = unbound half-maximal inhibitory concentration, Km = Michaelis constant for the substrate.
Fluorometric assay is the most commonly used method to identify the CYP inhibition of compounds in early drug discovery due to its sensitivity, speed, low cost, and ease of use. This method helps to ensure the drug interaction potential of the test compound on the important CYP isoforms such as CYP2C19. Inhibitor potency was quantified by determining IC50 values, which in turn was carried out using fixed substrate and inhibitor concentrations. Ilaprazole, Conventional PPIs, and Positive Control (Ticlopidine) were assayed between concentrations ranging from 0.8 to 6.4 μg/mL (Eight Different Concentration). All samples were assayed in duplicate as per the experimental condition (Table 1), the endpoint mode was selected to analyze the percentage inhibition, and IC50 values were calculated.

Data set [2] in a line: Unbound peak plasma concentration (Cmax,u) from literature Cmax. In kind it is in vivo. As to conditions: unbound peak plasma concentration = literature Cmax x fu 0.01; highest recommended doses. From the text:
The Cmax values for Pantoprazole, Rabeprazole, Lansoprazole, and Omeprazole were obtained from reliable sources, primarily the highest recommended doses listed in the FDA drug labels[15]–[19]. However, for Ilaprazole, as no literature data was available, its Cmax was obtained from available pharmacokinetic studies [drawing 4]
Cmax,u = unbound peak plasma concentration, Cmax = Maximum plasma concentration (from literature), fu = fraction unbound in plasma (0.01 as per the guidance for high protein-bound drugs).

T1 sequence (P33261 whole entry): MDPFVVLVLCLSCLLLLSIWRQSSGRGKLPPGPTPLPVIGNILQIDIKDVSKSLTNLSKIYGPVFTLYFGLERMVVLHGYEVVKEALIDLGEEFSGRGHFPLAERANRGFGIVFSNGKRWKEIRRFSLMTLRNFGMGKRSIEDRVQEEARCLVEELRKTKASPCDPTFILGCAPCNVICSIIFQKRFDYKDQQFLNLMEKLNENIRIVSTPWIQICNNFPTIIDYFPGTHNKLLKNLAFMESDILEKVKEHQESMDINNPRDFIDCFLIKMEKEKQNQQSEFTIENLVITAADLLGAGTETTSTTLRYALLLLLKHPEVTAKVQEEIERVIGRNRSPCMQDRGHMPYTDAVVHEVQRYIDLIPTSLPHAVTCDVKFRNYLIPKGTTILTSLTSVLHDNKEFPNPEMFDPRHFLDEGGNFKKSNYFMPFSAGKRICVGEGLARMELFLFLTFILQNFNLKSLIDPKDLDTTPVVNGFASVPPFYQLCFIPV

With `COc1ccnc(C[S+]([O-])c2nc3cc(-n4cccc4)ccc3[nH]2)c1C` (stereo not drawn) [Ilaprazole], in data set [1], the Ki (usually a dissociation constant, usually derived from enzyme kinetics or from competition with a known ligand) was determined as 166 µM and the IC50 (as a rule, the concentration needed to halve the response being measured) amounted to 6.62 ± 1.34 µM. Moreover, in data set [2], the “Cmax,u” value is 0.0045 µg/mL and 0.0123 µM.

Take `Cc1c(OCC(F)(F)F)ccnc1C[S+]([O-])c1nc2ccccc2[nH]1` (stereo not drawn) [Lansoprazole]: in data set [1], the Ki amounted to 41.3 µM and the IC50 was 1.65 ± 1.37 µM. The “Cmax,u” value in data set [2] was 0.0115 µg/mL and 0.0311 µM.

`COc1ccc2[nH]c([S+]([O-])Cc3ncc(C)c(OC)c3C)nc2c1` (stereo not drawn) [Omeprazole]: in data set [1], the Ki stood at 35.2 µM and the IC50 was 1.41 ± 0.96 µM. Besides, the “Cmax,u” value in data set [2] is 0.0112 µg/mL and 0.0324 µM.

Turning to `COc1ccnc(C[S+]([O-])c2nc3ccc(OC(F)F)cc3[nH]2)c1OC` (stereo not drawn) [Pantoprazole], in data set [1], the inhibitory constant (Ki) was determined as 88 µM and the IC50 was 3.52 ± 1.47 µM. The “Cmax,u” value in data set [2] is 0.025 µg/mL and 0.0652 µM.

As for `COCCCOc1ccnc(C[S+]([O-])c2nc3ccccc3[nH]2)c1C` (stereo not drawn) [Rabeprazole], in data set [1], the Ki was determined as 161 µM and the IC50 stood at 6.43 ± 1.09 µM. Further, the “Cmax,u” value in data set [2] was 0.0062 µg/mL and 0.0173 µM.
